Assays:
Test in all cases: relative viability (nuclei count vs DMSO), 5 days (fraction); higher = more cells survive
XMD14-99 + Phenformin = compound: CN1CCN(CC1)C2=CC(=C(C=C2)NC3=NC(=C(S3)C(=O)C4=C(C=CC=C4Cl)Cl)N)OC [XMD14-99] + N=C(N)NC(=N)NCCc1ccccc1 [Phenformin] (partner 250 µM)
Outline: (§1)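 Dosing by pin tool came one day after lung cancer cell lines were seeded in 1536-well plates, using either one drug or a fixed anchor-drug dose plus five library-drug doses (not always all listed) in √10 steps. After 5 days, nuclei were counted on 4× images. Relative viability is treated-well nuclei count divided by vehicle-well nuclei count, and values are medians of duplicate plates.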

AZD1208 + Luminespib = compound: N[C@@H]1CCCN(c2c(/C=C3\SC(=O)NC3=O)cccc2-c2ccccc2)C1 [AZD1208] + CCNC(=O)c1noc(-c2cc(C(C)C)c(O)cc2O)c1-c1ccc(CN2CCOCC2)cc1 [Luminespib] (partner 0.01 µM)
Outline: as §1

AZD1208 + Palbociclib = compound: N[C@@H]1CCCN(c2c(/C=C3\SC(=O)NC3=O)cccc2-c2ccccc2)C1 [AZD1208] + CC(=O)c1c(C)c2cnc(Nc3ccc(N4CCNCC4)cn3)nc2n(C2CCCC2)c1=O [Palbociclib] (partner 0.5 µM)
Outline: as §1

AZD1208 + OSI-027 = compound: N[C@@H]1CCCN(c2c(/C=C3\SC(=O)NC3=O)cccc2-c2ccccc2)C1 [AZD1208] + COc1cccc2cc(-c3nc([C@H]4CC[C@H](C(=O)O)CC4)n4ncnc(N)c34)[nH]c12 [OSI-027] (partner 0.5 µM)
Outline: as §1

UMC-11
relative viability (XMD14-99 + Phenformin; first compound 0.08 µM): 0.336 | relative viability (XMD14-99 + Phenformin; first compound 0.8 µM): 0.314 | relative viability (XMD14-99 + Phenformin; first compound 2.53 µM): 0.319 | relative viability (XMD14-99 + Phenformin; first compound 8 µM): 0.275 | relative viability (AZD1208 + Luminespib; first compound 0.08 µM): 0.816 | relative viability (AZD1208 + Luminespib; first compound 0.253 µM): 0.894 | relative viability (AZD1208 + Luminespib; first compound 0.8 µM): 0.62 | relative viability (AZD1208 + Luminespib; first compound 2.53 µM): 0.664 | relative viability (AZD1208 + Luminespib; first compound 8 µM): 0.406 | relative viability (AZD1208 + Palbociclib; first compound 0.08 µM): 0.293 | relative viability (AZD1208 + Palbociclib; first compound 0.253 µM): 0.281 | relative viability (AZD1208 + Palbociclib; first compound 0.8 µM): 0.291 | relative viability (AZD1208 + Palbociclib; first compound 2.53 µM): 0.308 | relative viability (AZD1208 + Palbociclib; first compound 8 µM): 0.262 | relative viability (AZD1208 + OSI-027; first compound 0.08 µM): 0.333 | relative viability (AZD1208 + OSI-027; first compound 0.253 µM): 0.321 | relative viability (AZD1208 + OSI-027; first compound 0.8 µM): 0.321 | relative viability (AZD1208 + OSI-027; first compound 2.53 µM): 0.329 | relative viability (AZD1208 + OSI-027; first compound 8 µM): 0.294

— the supplement of paper PMC10307832
